Reference: patent US9255103B2, “Substituted pyrazolo[1,5-a]pyrazines as mGluR5 receptor modulators” (Vanderbilt University, priority 2010, dated 2016)
Like-named read-outs stand apart in the source and are kept apart here.

How the values were obtained:
[1] = molecular target: human mGluR5a receptor (Homo sapiens, UniProt P41594); assay: Cell-based functional Ca2+ mobilization assay (FDSS), potentiation of glutamate EC20 response in H10H cell line; conditions: for Emax: percent of maximal glutamate response, human mGluR5 HEK cells; for EC50 / pEC50: HEK cells transfected with human mGluR5 (H10H), presence of glutamate EC20
Sequence of human mGluR5a receptor (P41594 21-1180 isoform P41594-2 limits assumed): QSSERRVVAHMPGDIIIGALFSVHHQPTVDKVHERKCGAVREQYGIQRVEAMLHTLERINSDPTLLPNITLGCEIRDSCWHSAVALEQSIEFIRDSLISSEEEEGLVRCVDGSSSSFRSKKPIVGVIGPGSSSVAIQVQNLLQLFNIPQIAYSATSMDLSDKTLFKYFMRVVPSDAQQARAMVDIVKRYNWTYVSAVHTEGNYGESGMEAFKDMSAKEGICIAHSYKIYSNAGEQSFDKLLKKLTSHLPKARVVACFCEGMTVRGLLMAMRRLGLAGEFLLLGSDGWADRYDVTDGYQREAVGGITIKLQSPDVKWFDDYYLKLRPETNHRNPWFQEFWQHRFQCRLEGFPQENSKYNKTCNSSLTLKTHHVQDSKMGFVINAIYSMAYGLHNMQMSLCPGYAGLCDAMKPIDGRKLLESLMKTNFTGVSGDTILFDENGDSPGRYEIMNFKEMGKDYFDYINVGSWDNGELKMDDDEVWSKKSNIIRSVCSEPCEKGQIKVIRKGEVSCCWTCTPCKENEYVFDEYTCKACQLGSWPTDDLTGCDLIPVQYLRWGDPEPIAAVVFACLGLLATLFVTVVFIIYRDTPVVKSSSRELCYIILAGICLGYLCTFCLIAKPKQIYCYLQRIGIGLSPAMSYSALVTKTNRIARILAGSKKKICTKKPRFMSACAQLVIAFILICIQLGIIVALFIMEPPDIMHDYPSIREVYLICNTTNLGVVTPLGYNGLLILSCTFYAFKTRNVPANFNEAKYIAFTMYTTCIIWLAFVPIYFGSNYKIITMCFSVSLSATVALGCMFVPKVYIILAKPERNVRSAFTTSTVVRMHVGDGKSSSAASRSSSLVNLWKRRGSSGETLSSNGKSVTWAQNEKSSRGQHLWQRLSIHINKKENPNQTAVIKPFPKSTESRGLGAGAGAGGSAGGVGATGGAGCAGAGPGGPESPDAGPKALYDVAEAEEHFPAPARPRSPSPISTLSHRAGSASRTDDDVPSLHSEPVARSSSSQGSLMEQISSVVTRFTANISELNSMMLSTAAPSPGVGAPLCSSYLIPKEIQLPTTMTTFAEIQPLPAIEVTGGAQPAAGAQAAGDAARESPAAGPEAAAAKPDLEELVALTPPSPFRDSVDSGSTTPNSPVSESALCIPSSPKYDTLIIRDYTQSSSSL
Experimental: Human embryonic kidney (HEK) cells transfected with rat mGluR5 were plated in clear bottom assay plates for assay in a Functional Drug Screening System (FDSS). In the alternative assay, HEK cells transfected with human mGluR5 (H10H cell line) were plated for assay in the FDSS. […] The cells were loaded with a Ca^2+-sensitive fluorescent dye (e.g., Fluo-4), and the plates were washed and placed in the FDSS instrument. After establishment of a fluorescence baseline for twelve seconds, the compounds of the present invention were added to the cells, and the response in cells was measured. Alternatively, in various further aspects, after establishment of a fluorescence baseline for about three seconds, the compounds of the present invention were added to the cells, and the response in cells was measured. Five minutes later, an mGluR5 agonist (e.g., glutamate, 3,5-dihydroxyphenylglycine, or quisqualate) was added to the cells, and the response of the cells was measured.
The above described assay operated in two modes. In the first mode, a range of concentrations of the present compounds were added to cells, followed by a single fixed concentration of agonist. If a compound acted as a potentiator, an EC50 value for potentiation and a maximum extent of potentiation by the compound at this concentration of agonist was determined by non-linear curve fitting. In the second mode, several fixed concentrations of the present compounds were added to various wells on a plate, followed by a range of concentrations of agonist for each concentration of present compound; the EC50 values for the agonist at each concentration of compound were determined by non-linear curve fitting. A decrease in the EC50 value of the agonist with increasing concentrations of the present compounds (a leftward shift of the agonist concentration-response curve) is an indication of the degree of mGluR5 potentiation at a given concentration of the present compound. An increase in the EC50 value of the agonist with increasing concentrations of the present compounds (a rightward shift of the agonist concentration-response curve) is an indication of the degree of mGluR5 antagonism at a given concentration of the present compound. The second mode also indicates whether the present compounds also affect the maximum response to mGluR5 to agonists.
The mGluR5 activity was determined using the metabotropic glutamate receptor activity assays in human embryonic kidney cells as described herein, wherein the human embryonic kidney cells were transfected with human mGluR5. The compounds in Table 1 were synthesized with methods identical or analogous to those shown herein. The requisite starting materials were commercially available, described in the literature, or readily synthesized by one skilled in the art of organic synthesis.
Human mGluR5a cDNA in pCMV6-XL6 mammalian expression plasmid was purchased from OriGene Technologies, Inc. (catalogue number SC326357) and subcloned into pcDNA3.1(−). Human embryonic kidney (HEK)293A cells were then transfected with human mGluR5a pcDNA3.1(−) using LipofectAmine2000 (Invitrogen) and monoclones were selected and tested for functional response using a Ca^2+ mobilization assay. Monoclones were named for the species (“H” for human) plus the location on the plate (e.g. “10H”).
HEK cells transfected with the human mGluR5a receptor (H10H cell line) were plated at 15,000 cells/well in clear-bottomed poly-D-lysine-coated assay plates (BD Falcon) in glutamate-glutamine-free growth medium and incubated overnight at 37° C. and 5% CO2. The following day, the growth medium was removed and the cells were washed with assay buffer containing 1× Hank's balanced salt solution (Invitrogen, Carlsbad, Calif.), 20 mM HEPES, 2.5 mM probenecid, pH 7.4 and left with 20 μL of this reagent.

[2] = HEK293, maximum average response at a single concentration, read-out: Emax
[3] = maximum average response at a single concentration

Compound	Emax [1, 2] [%]	EC50 ([1]; read-out: EC50) [nM]	melting point [°C]	pEC50 ([1]; concentration in mol/L)	EC50 ([1]; concentration in mol/L, read-out: pEC50 (converted)) [nM]	Emax [1, 3] [%]
CC1CN(C(=O)c2ccc(F)cc2)Cc2cc(COc3ccccc3)nn21 (racemic) [Compound 16]	77	172	126.5	–	–	–
CC1Cn2nc(COc3ccccc3)cc2CN1C(=O)c1ccc(F)cc1 (racemic) [Compound 17]	81	673	–	–	–	–
O=C(c1ccc(F)cc1)N1CCn2nc(COc3ccccc3)cc2C1C(F)(F)F (racemic) [Compound 53]	67	2630	53.1	–	–	–
CC(Oc1ccccc1)c1cc2n(n1)CCN(C(=O)c1ccc(F)cc1)C2 (racemic) [Compound 54]	25	> 30200	–	–	–	–
O=C(c1ccc(F)cc1)N1CCn2nc(COc3ccccc3)cc2C1 [Compound 1]	67	161	106	6.79	–	–
O=C(c1ccccc1F)N1CCn2nc(COc3ccccc3)cc2C1 [Compound 2]	76	201	–	6.70	–	–
O=C(c1cccc(F)c1)N1CCn2nc(COc3ccccc3)cc2C1 [Compound 3]	66	169	–	6.77	–	–
O=C(c1ccc(F)c(F)c1)N1CCn2nc(COc3ccccc3)cc2C1 [Compound 4]	70	414	100.6	6.38	–	–
O=C(c1cc(F)cc(F)c1)N1CCn2nc(COc3ccccc3)cc2C1 [Compound 5]	50	79.6	–	7.10	–	–
O=C(c1c(F)cccc1F)N1CCn2nc(COc3ccccc3)cc2C1 [Compound 6]	74	292	95.8	6.53	–	–
O=C(c1cccc(F)c1F)N1CCn2nc(COc3ccccc3)cc2C1 [Compound 7]	58	406	–	6.39	–	–
O=C(c1ccc(F)cc1F)N1CCn2nc(COc3ccccc3)cc2C1 [Compound 8]	78	208	–	6.68	–	–
O=C(c1ccccc1)N1CCn2nc(COc3cccc(F)c3)cc2C1 [Compound 9]	72	257	159.2	6.59	–	–
O=C(c1cccc(F)c1)N1CCn2nc(COc3cccc(F)c3)cc2C1 [Compound 10]	69	269	–	6.57	–	–
O=C(c1ccc(F)cc1F)N1CCn2nc(COc3cccc(F)c3)cc2C1 [Compound 11]	82	273	79.7	6.56	–	–
O=C(c1ccc(F)cc1)N1CCn2nc(COc3cccc(F)c3)cc2C1 [Compound 12]	69	–	126.9	–	–	–
O=C(c1ccc(F)c(F)c1)N1CCn2nc(COc3cccc(F)c3)cc2C1 [Compound 13]	75	587	112.7	6.23	–	–
Cc1cccnc1C(=O)N1CCn2nc(COc3cccc(F)c3)cc2C1 [Compound 14]	51	> 10000	125.4	<5.00	–	–
Cc1ccc(C(=O)N2CCn3nc(COc4cccc(F)c4)cc3C2)cn1 [Compound 15]	30	> 30200	88.2	<4.52	–	–
CC1(C)CN(C(=O)c2ccc(F)cc2)Cc2cc(COc3ccccc3)nn21 [Compound 18]	66	256	–	6.59	–	–
O=C(c1ncccc1F)N1CCn2nc(COc3cccc(F)c3)cc2C1 [Compound 20]	65	2950	114	5.53	–	–

Compound	Emax [1, 2] [%]	EC50 ([1]; read-out: EC50) [nM]	melting point [°C]	pEC50 ([1]; concentration in mol/L)	EC50 ([1]; concentration in mol/L, read-out: pEC50 (converted)) [nM]	Emax [1, 3] [%]
O=C(c1ncc(F)cc1F)N1CCn2nc(COc3cccc(F)c3)cc2C1 [Compound 21]	77	1280	> 300	5.89	–	–
Cc1ncccc1C(=O)N1CCn2nc(COc3cccc(F)c3)cc2C1 [Compound 22]	34	2910	–	5.53	–	–
O=C(c1cncc(F)c1)N1CCn2nc(COc3cccc(F)c3)cc2C1 [Compound 23]	58	1370	> 300	–	1510	–
Cc1cccc(C(=O)N2CCn3nc(COc4cccc(F)c4)cc3C2)n1 [Compound 24]	58	3030	88	5.51	–	–
N#Cc1cccc(C(=O)N2CCn3nc(COc4ccccc4)cc3C2)c1 [Compound 25]	60	457	–	6.34	–	–
N#Cc1cc(F)cc(C(=O)N2CCn3nc(COc4ccccc4)cc3C2)c1 [Compound 26]	52	83	109.8	7.08	–	–
N#Cc1ccc(C(=O)N2CCn3nc(COc4ccccc4)cc3C2)cc1F [Compound 27]	23	> 30200	60.3	<4.52	–	–
O=C(c1cnccn1)N1CCn2nc(COc3cccc(F)c3)cc2C1 [Compound 34]	60	3020	–	5.52	–	–
Cc1ncc(C(=O)N2CCn3nc(COc4cccc(F)c4)cc3C2)cn1 [Compound 37]	12	> 30200	–	<4.52	–	–
O=C(c1ccc(F)cc1)N1CCn2nc(COc3ccc(F)cc3)cc2C1 [Compound 38]	58	295	–	6.53	–	–
CC1CN(C(=O)c2ccc(F)cc2)Cc2cc(COc3ccccc3)nn21 (centres unmarked) [Compound 40]	58	708	–	6.15	–	–
CC1CN(C(=O)c2ccc(F)cc2)Cc2cc(COc3ccccc3)nn21 (centres unmarked) [Compound 41]	–	162	–	6.79	–	74
CC1CN(C(=O)c2cccc(F)c2)Cc2cc(COc3ccccc3)nn21 (centres unmarked) [Compound 42]	69	138	–	6.86	–	–
CC1CN(C(=O)c2cc(F)cc(C#N)c2)Cc2cc(COc3ccccc3)nn21 (centres unmarked) [Compound 44]	66	692	–	6.16	–	–
CC1Cn2nc(COc3ccccc3)cc2CN1C(=O)c1cccc(F)c1 (centres unmarked) [Compound 47]	52	1070	–	5.97	–	–
CC1Cn2nc(COc3ccccc3)cc2CN1C(=O)c1cccc(F)c1 (centres unmarked) [Compound 48]	–	490	–	6.31	–	67
CC1Cn2nc(COc3ccccc3)cc2CN1C(=O)c1cc(F)cc(C#N)c1 (centres unmarked) [Compound 51]	56	759	–	6.12	–	–
CC1Cn2nc(COc3ccccc3)cc2CN1C(=O)c1cc(F)cc(C#N)c1 (centres unmarked) [Compound 52]	–	> 10000	–	<5.00	–	69
O=C(c1ccc(F)cc1)N1CCn2nc(COc3ccccc3)c(F)c2C1 [Compound 56]	62	550	–	6.26	–	–
Nc1c(COc2ccccc2)nn2c1CN(C(=O)c1ccc(F)cc1)CC2 [Compound 58]	51	4570	–	5.34	–	–
COc1c(COc2ccccc2)nn2c1CN(C(=O)c1ccc(F)cc1)CC2 [Compound 59]	15	1820	–	5.74	–	–
